What was measured:
[1] = system: vascular endothelial growth factor (VEGF) in human retinal pigment epithelial cells (ARPE-19 cells); test: Western blotting of VEGF level in ARPE-19 cells; format: cell-based; conditions: FIG. 1B
Experimental: (§1) ARPE-19 cells (RID: CVCL 0145) and L-Wnt3a cells (RID: CVCL 0635) were acquired from American Type Culture Collection (ATCC) and cultured in a DMEM medium supplemented with 10% fetal bovine serum (FBS), 120 μg/mL penicillin and 200 μg/mL streptomycin. Human umbilical vein endothelial cells (HUVECs, RID: CVCL 2959) were purchased from CEFO (Cell Engineering for Origin) and cultured using an optimized medium (CEFOgro-HUVEC). Wnt3a-CM (Wnt3a-conditioned medium) was prepared using L-Wnt3a cells that secrete the Wnt-3a protein into the medium. First, the cells were cultured for 4 days and the medium was recovered and replaced with a fresh medium. After culturing for 3 days, the medium was recovered. The two media were combined and used after passing through a 0.22-μm filter. All the cells were cultured in a cell incubator under the condition of 37° C. and 5% CO2.
Whole cell proteins were obtained using a RIPA buffer. After treating the cells with an appropriate amount of a RIPA buffer supplemented with 1× protease inhibitor, the cells were reacted on ice while vortexing once every 10 minutes. After centrifuging at 13,000 rpm and at 4° C. for 10 minutes and quantifying the obtained supernatant by BRADFORD™ assay, […] of proteins were separated according to molecular weight through electrophoresis. […]

C57BL/6J mice = test: Organ and tissue toxicity (blood GPT, BUN; liver and kidney histology); format: in vivo
Experimental: In order to investigate the effect on the organs (tissues) of C57BL/6J mice, blood was taken from the animals of a test group to which the compound of Example (1) was administered and a control group to which only a solvent was administered 8 weeks after the administration, and blood levels of GPT (glutamate-pyruvate transferase) and BUN (blood urea nitrogen) were measured using SELECT™ E (Vital Scientific NV, Netherlands). […] In addition, the liver and kidney were taken from each animal and subjected to histological observation under an optical microscope through a conventional tissue section preparation process.

[2] = system: human endothelial cells (HUVECs); test: Cell viability test (CELLTITER-GLO luminescent assay) in HUVECs; format: cell-based; conditions: various concentrations, 48 hours, FIG. 1A
Experimental: as §1, with “The two media were combined and used after passing through a 0.22-μm filter. All the cells were cultured in a cell incubator under the condition of 37° C. and 5% CO2.” left out
HUVECs were inoculated into a 96-well plate with a transparent black bottom at 5,000 cells per well, incubated overnight, and then treated with a test substances (compound of Example (1) (CGK012) or decursin of Comparative Example (1)) at various concentrations together with a medium (total volume per well: 100 μL). After 48 hours, cell viability was measured using a CELLTITER-GLO® luminescent cell viability assay kit (Promega, G7572) according to the manufacturer's instructions. […] After mixing in an orbital shaker for 2 minutes for cell lysis, stabilization was induced at room temperature for 10 minutes, and then luminescence was measured. […]

ICR mice = test: Acute toxicity, oral, fatality rate at 24 hours; format: in vivo; conditions: 2.0 g/kg, n=5
Experimental: This experiment was conducted to investigate the acute (within 24 hours) toxicity of the compound of the present disclosure and determine its fatality rate when consumed in an excess amount in a short period of time. ICR mice were assigned to a control group (n=5) and a test group (n=5). Nothing was administered to the control group and the compound of Example (1) was orally administered to the test group at a concentration of 2.0 g/kg (about 50 times the amount used in general animal experiments).

[3] = system: choroidal neovascularization (CNV)-induced rabbit model; test: Laser-induced choroidal neovascularization (CNV) rabbit model, fluorescein angiography, retinal fluorescence intensity; format: in vivo, Chinchilla rabbit; conditions: for Fluorescence intensity (% of control group): rabbit CNV, instillation 300 μg/eye 1/day, day 7 (G6, G7)
From the text: After obtaining 50 male Chinchilla rabbits weighing about 2.5-3.0 kg from DREAMBIO, their health status was checked during a 7-day acclimatization period, and healthy animals were used in the test.
After the acclimatization period, 42 healthy rabbits were selected and a mydriatic agent (MIDRIACIL™ 1% eye drop) was instilled into the right eye. After anesthetizing the animals, laser (ELITE, LUMENIS, USA) was irradiated under the condition of 532 nm, power 150 mW and duration 0.1 sec, and 6 spots were made in about 6 o'clock direction around the optic nerve.
After dividing the test animals into a total of 7 groups, G1 to G7, administration of the test substance was started on the day of the CNV induction using laser with the concentrations described in Table 2. In Table 2, EYLEA™ (Aflibercept) was used as a positive control substance. For intravitreal injection, 40 μL of the positive control substance (EYLEA™) was injected intravitreally into the right eye of the animal in the anesthetized state using a syringe equipped with a 31-gauge needle on the day of the CNV induction. For instillation, after the animal was taken out of the cage and corrected naturally by an assistant, 200 μL of the test substance was instilled into the center of the cornea of the right eye by using a pipette. In the case of “a)”, the instillation was divided into 4 times and each administration was spaced by 5 minutes.
Before the administration of the test substance (0) and on 7, 14, 28, 42 and 56 days after the administration, a mydriatic agent (MIDRIACIL™ 1% eye drop) was instilled into the right of the animal. Then, after anesthetizing the animal and injecting about 1 mL of a 2% fluorescein sodium salt solution via the ear vein, images were taken within about 2 minutes using a fundus camera (TRC-50IX, Topcon, Japan).
Retinal CNV and drug efficacy were confirmed using the retinal fluorescein fundus images. The fluorescein intensity of the irradiation area was analyzed using the ImageJ software (NIH, Bethesda, MD).
For the results of this test, the significance between the test groups was tested using parametric one-way ANOVA assuming the normality of the data. When significance was recognized, a post hoc test was performed using Dunnett's multiple comparison test. Statistical analysis was performed using PRISM 7.04 (GraphPad Software Inc., San Diego, CA, USA), and p<0.05 was considered statically significant.
The test substance of the example or the comparative example was dropped onto the eye of a rabbit wherein choroidal neovascularization (CNV) was induced by laser irradiation, for 7 days, 300 μg per each administration. On day 7 after the start of the test substance administration, the eye was imaged with a fundus camera to compare the effect of the test substance on intraocular vascular leakage and the fluorescence intensity of the retina was analyzed. […] Table 3 compares the relative fluorescence intensity (% of control group) of the irradiation area determined by analyzing the retinal fluorescein angiographic images of the control group (G1), the test group (G6) and the comparison group (G7).
For a rabbit wherein choroidal neovascularization (CNV) was induced by laser irradiation, EYLEA™ was intravitreally injected as a positive control, the eye drop of the example was administered by dropping onto the eye or EYLEA™ and the eye drop of the example were co-administered. […]

[4] = G5: CGK012 administered alone, FIG. 6B, 6C

Compound | level of VEGF in ARPE-19 cells [1] | blood level of BUN (blood urea nitrogen) vs control group (C57BL/6J mice; 8 weeks after the administration, kidney toxicity) | blood level of GPT (glutamate-pyruvate transferase) vs control group (C57BL/6J mice; 8 weeks after the administration, liver toxicity) | histological observation of liver and kidney (C57BL/6J mice; optical microscope) | cell viability of human endothelial cells (HUVECs) [2] | fatality rate 24 hours after the administration (ICR mice) | difference of retinal fluorescence intensity from the positive control EYLEA administration group (G2) [3, 4] | level of retinal fluorescence intensity as compared to the induced control group (G1) [3, 4] | relative fluorescence intensity (% of control group) ([3]; G5: CGK012 instillation 300 μg/eye 2/day, Day 7) | relative fluorescence intensity (% of control group) ([3]; G5: CGK012 instillation 300 μg/eye 2/day, Day 14) | relative fluorescence intensity (% of control group) ([3]; G5: CGK012 instillation 300 μg/eye 2/day, Day 28) | relative fluorescence intensity (% of control group) ([3]; G5: CGK012 instillation 300 μg/eye 2/day, Day 42) | relative fluorescence intensity (% of control group) ([3]; G5: CGK012 instillation 300 μg/eye 2/day, Day 56) | duration of the effect of inhibiting choroidal neovascularization ([3]; G5: single administration of CGK012 (eye drop, without EYLEA)) | Fluorescence intensity (% of control group) [3] | relative fluorescence intensity (% of control group) ([3]; G2: EYLEA intravitreal 1600 μg/eye 1/3 weeks, Day 7) | relative fluorescence intensity (% of control group) ([3]; G2: EYLEA intravitreal 1600 μg/eye 1/3 weeks, Day 14) | relative fluorescence intensity (% of control group) ([3]; G2: EYLEA intravitreal 1600 μg/eye 1/3 weeks, Day 28) | relative fluorescence intensity (% of control group) ([3]; G2: EYLEA intravitreal 1600 μg/eye 1/3 weeks, Day 42) | relative fluorescence intensity (% of control group) ([3]; G2: EYLEA intravitreal 1600 μg/eye 1/3 weeks, Day 56)
CC1(C)Oc2cc3oc(=O)ccc3cc2C[C@@H]1OC(=O)NC1CCCC1 [CGK012, (7S)-(+)-cyclopentylcarbarmic acid 8,8-dimethyl-2-oxo-6,7-dihydro-2H,8H-pyrano[3,2-g]chromen-7-yl-ester] | remarkably decreased VEGF | no significant difference was observed | no significant difference was observed | No unusual abnormality was observed | significantly inhibited the survival of the HUVECs at high concentrations | all the animals of the control group and the test group survived | no statistically significant difference | significantly low | 80.877 ± 8.905 % of control group | 79.116 ± 7.972 % of control group | 79.152 ± 6.642 % of control group | 79.137 ± 6.355 % of control group | 81.041 ± 10.391 % of control group | 8 weeks | 75.52 ± 3.93 % of control group |  |  |  |  | 
Aflibercept [EYLEA™, reference compound] |  |  |  |  |  |  |  |  |  |  |  |  |  |  |  | 78.474 ± 8.452 % of control group | 70.022 ± 7.008 % of control group | 69.348 ± 5.013 % of control group | 74.154 ± 9.129 % of control group | 84.087 ± 9.079 % of control group
CC(C)=CC(=O)O[C@H]1Cc2cc3ccc(=O)oc3cc2OC1(C)C [decursin, reference compound] | did not show significant effect on the level of VEGF |  |  |  | did not significantly induce the apoptosis of the HUVECs even at high concentrations |  |  |  |  |  |  |  |  |  | 95.66 ± 10.80 % of control group |  |  |  |  | 

Source: patent publication US12558339B2, “Composition comprising (7S)-(+)-cyclopentyl carbarmic acid, 8,8-dimethyl-2-oxo-6,7-dihydro-2H,8H-pyrano[3,2-g]chromen-7-yl-ester as active ingredient for prevention, alleviation, or treatment of eye disease” (INSPHARMTECH INC., priority 2021, dated 2026)
